{"source": "ChEMBL document CHEMBL1671704", "about": "“Defining the role of mutations in Plasmodium vivax dihydrofolate reductase-thymidylate synthase gene using an episomal Plasmodium falciparum transfection system” (Antimicrob Agents Chemother, 2010)", "key": {"[1]": {"tested_on": "Plasmodium falciparum", "assay": "Ratio of IC50 for Plasmodium falciparum D6 harboring Plasmodium vivax DHFR S117N mutant to IC50 for Plasmodium falciparum D6 harboring Plasmodium vivax wild type DHFR", "format": "functional"}, "[2]": {"tested_on": "Plasmodium falciparum", "assay": "Antimalarial activity against Plasmodium falciparum D6 harboring Plasmodium vivax DHFR S58R and S117N mutant infected in RBCs assessed as inhibition of [3H]hypoxanthine incorporation after 72 hrs", "format": "functional, organism-based"}, "[3]": {"tested_on": "Plasmodium falciparum", "assay": "Antimalarial activity against Plasmodium falciparum TM91c235 harboring DHFR F57L, S58R, T61M, S117T mutant infected in RBCs assessed as inhibition of [3H]hypoxanthine incorporation after 72 hrs", "format": "functional, organism-based"}, "[4]": {"tested_on": "Plasmodium falciparum", "assay": "Antimalarial activity against Plasmodium falciparum D6 harboring Plasmodium vivax DHFR F57L, S58R, T61M, S117T mutant infected in RBCs assessed as inhibition of [3H]hypoxanthine incorporation after 72 hrs", "format": "functional, organism-based"}, "[5]": {"tested_on": "Plasmodium falciparum", "assay": "Ratio of IC50 for Plasmodium falciparum D6 harboring Plasmodium vivax DHFR F57L and S117N mutant to IC50 for Plasmodium falciparum D6 harboring Plasmodium vivax wild type DHFR", "format": "functional"}, "[6]": {"tested_on": "Plasmodium falciparum", "assay": "Antimalarial activity against Plasmodium falciparum D6 harboring Plasmodium vivax DHFR F57L and S117N mutant infected in RBCs assessed as inhibition of [3H]hypoxanthine incorporation after 72 hrs", "format": "functional, organism-based"}, "[7]": {"tested_on": "Plasmodium falciparum", "assay": "Antimalarial activity against Plasmodium falciparum D6 infected in RBCs assessed as inhibition of [3H]hypoxanthine incorporation after 72 hrs", "format": "functional, organism-based"}, "[8]": {"tested_on": "Plasmodium falciparum", "assay": "Antimalarial activity against Plasmodium falciparum D6 harboring Plasmodium vivax DHFR S58R, T61M and S117N mutant infected in RBCs assessed as inhibition of [3H]hypoxanthine incorporation after 72 hrs", "format": "functional, organism-based"}, "[9]": {"tested_on": "Plasmodium falciparum", "assay": "Ratio of IC50 for Plasmodium falciparum TM91c235 harboring DHFR F57L, S58R, T61M, S117T mutant to IC50 for Plasmodium falciparum D6", "format": "functional"}, "[10]": {"tested_on": "Plasmodium falciparum", "assay": "Antimalarial activity against Plasmodium falciparum D6 harboring Plasmodium vivax wild type DHFR infected in RBCs assessed as inhibition of [3H]hypoxanthine incorporation after 72 hrs", "format": "functional, organism-based"}, "[11]": {"tested_on": "Plasmodium falciparum", "assay": "Ratio of IC50 for Plasmodium falciparum D6 harboring Plasmodium vivax DHFR S58R, T61M and S117N mutant to IC50 for Plasmodium falciparum D6 harboring Plasmodium vivax wild type DHFR", "format": "functional"}, "[12]": {"tested_on": "Plasmodium falciparum", "assay": "Ratio of IC50 for Plasmodium falciparum D6 harboring Plasmodium vivax DHFR F57L, S58R, T61M, S117T mutant to IC50 for Plasmodium falciparum D6 harboring Plasmodium vivax wild type DHFR", "format": "functional"}, "[13]": {"tested_on": "Plasmodium falciparum", "assay": "Ratio of IC50 for Plasmodium falciparum D6 harboring Plasmodium vivax DHFR S58R and S117N mutant to IC50 for Plasmodium falciparum D6 harboring Plasmodium vivax wild type DHFR", "format": "functional"}, "[14]": {"tested_on": "Plasmodium falciparum", "assay": "Antimalarial activity against Plasmodium falciparum D6 harboring Plasmodium vivax DHFR S117N mutant infected in RBCs assessed as inhibition of [3H]hypoxanthine incorporation after 72 hrs", "format": "functional, organism-based"}}, "data": [{"compound": "CC1(C)N=C(N)N=C(N)N1OCc1ccc(Cl)c(Cl)c1", "note": "[CLOCIGUANIL]", "values": [{"measurement": "Ratio IC50", "setting": "[1]", "result": 6}, {"measurement": "IC50", "setting": "[2]", "result": 0.582, "unit": "nM"}, {"measurement": "IC50", "setting": "[3]", "result": 3.16, "unit": "nM"}, {"measurement": "IC50", "setting": "[4]", "result": 56.4, "unit": "nM"}, {"measurement": "Ratio IC50", "setting": "[5]", "result": 10}, {"measurement": "IC50", "setting": "[6]", "result": 0.219, "unit": "nM"}, {"measurement": "IC50", "setting": "[7]", "result": 0.021, "unit": "nM"}, {"measurement": "IC50", "setting": "[8]", "result": 0.073, "unit": "nM"}, {"measurement": "Ratio IC50", "setting": "[9]", "result": 144}, {"measurement": "IC50", "setting": "[10]", "result": 0.022, "unit": "nM"}, {"measurement": "Ratio IC50", "setting": "[11]", "result": 3}, {"measurement": "Ratio IC50", "setting": "[12]", "result": 2565}, {"measurement": "Ratio IC50", "setting": "[13]", "result": 26}, {"measurement": "IC50", "setting": "[14]", "result": 0.067, "unit": "nM"}]}, {"compound": "CC1(C)N=C(N)N=C(N)N1OCCCOc1cc(Cl)c(Cl)cc1Cl", "values": [{"measurement": "Ratio IC50", "setting": "[1]", "result": 6}, {"measurement": "IC50", "setting": "[2]", "result": 0.69, "unit": "nM"}, {"measurement": "IC50", "setting": "[3]", "result": 0.339, "unit": "nM"}, {"measurement": "IC50", "setting": "[4]", "result": 2.93, "unit": "nM"}, {"measurement": "Ratio IC50", "setting": "[5]", "result": 22}, {"measurement": "IC50", "setting": "[6]", "result": 1.5, "unit": "nM"}, {"measurement": "IC50", "setting": "[7]", "result": 0.166, "unit": "nM"}, {"measurement": "IC50", "setting": "[8]", "result": 0.105, "unit": "nM"}, {"measurement": "Ratio IC50", "setting": "[9]", "result": 5}, {"measurement": "IC50", "setting": "[10]", "result": 0.067, "unit": "nM"}, {"measurement": "Ratio IC50", "setting": "[11]", "result": 2}, {"measurement": "Ratio IC50", "setting": "[12]", "result": 44}, {"measurement": "Ratio IC50", "setting": "[13]", "result": 10}, {"measurement": "IC50", "setting": "[14]", "result": 0.427, "unit": "nM"}]}, {"compound": "CC1(C)N=C(N)N=C(N)N1c1ccc(Cl)cc1", "note": "[CYCLOGUANIL]", "values": [{"measurement": "Ratio IC50", "setting": "[1]", "result": 2}, {"measurement": "IC50", "setting": "[2]", "result": 1.7, "unit": "nM"}, {"measurement": "IC50", "setting": "[3]", "result": 116, "unit": "nM"}, {"measurement": "IC50", "setting": "[4]", "result": 320, "unit": "nM"}, {"measurement": "Ratio IC50", "setting": "[5]", "result": 6}, {"measurement": "IC50", "setting": "[6]", "result": 2.77, "unit": "nM"}, {"measurement": "IC50", "setting": "[7]", "result": 0.118, "unit": "nM"}, {"measurement": "IC50", "setting": "[8]", "result": 0.587, "unit": "nM"}, {"measurement": "Ratio IC50", "setting": "[9]", "result": 50}, {"measurement": "IC50", "setting": "[10]", "result": 0.429, "unit": "nM"}, {"measurement": "Ratio IC50", "setting": "[11]", "result": 1}, {"measurement": "Ratio IC50", "setting": "[12]", "result": 746}, {"measurement": "Ratio IC50", "setting": "[13]", "result": 4}, {"measurement": "IC50", "setting": "[14]", "result": 0.81, "unit": "nM"}]}, {"compound": "CCc1nc(N)nc(N)c1-c1ccc(Cl)cc1", "note": "[PYRIMETHAMINE]", "values": [{"measurement": "IC50", "setting": "[2]", "result": 6.26, "unit": "nM"}, {"measurement": "IC50", "setting": "[3]", "result": 143, "unit": "nM"}, {"measurement": "IC50", "setting": "[4]", "result": 467, "unit": "nM"}, {"measurement": "IC50", "setting": "[6]", "result": 3.66, "unit": "nM"}, {"measurement": "IC50", "setting": "[7]", "result": 0.028, "unit": "nM"}, {"measurement": "IC50", "setting": "[8]", "result": 2.81, "unit": "nM"}, {"measurement": "IC50", "setting": "[10]", "result": 0.055, "unit": "nM"}]}]}
